Laboratory results reported in article PMC10216581, “Homogeneous, Synthetic, Non-Saccharide Glycosaminoglycan Mimetics as Potent Inhibitors of Human Cathepsin G” (Biomolecules, 2023).

Experiments:
Type in all cases: biochemical
Human CatG = biological target: T1, Human CatG (Homo sapiens, UniProt P08311); assay: Direct inhibition of CatG, chromogenic substrate (S-7388) hydrolysis assay, IC50 determination; conditions: for HS (Hill slope): Hill slope of dose-response fit; for HS (Hill slope) / IC50 / ΔY (efficacy): 100 mM NaCl; for HS (Hill slope) / ΔY (efficacy): pH 7.4; for IC50: pH 7.4 tris buffer, 37 °C, 60 nM CatG, 750 µM S-7388, ± 1 S.E., read-out: IC50; for ΔY (efficacy): ΔY = YM − YO of dose-response fit; for fold difference (loss) in CatG inhibition potency relative to NSGM 25: ratio of IC50s versus 25
T1 construct: purchased Elastin Products Company (Owensville, MO, USA)
T1 sequence (P08311 21-255): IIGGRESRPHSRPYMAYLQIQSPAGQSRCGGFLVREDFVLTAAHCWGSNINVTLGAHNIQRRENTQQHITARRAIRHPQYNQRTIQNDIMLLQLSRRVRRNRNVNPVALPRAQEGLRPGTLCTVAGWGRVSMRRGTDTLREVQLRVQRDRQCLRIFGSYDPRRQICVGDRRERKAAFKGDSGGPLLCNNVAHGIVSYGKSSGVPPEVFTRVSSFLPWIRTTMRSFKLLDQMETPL
Description: A chromogenic substrate hydrolysis assay was used to determine the direct inhibition of CatG by the NSGMs, as previously reported. To each well of a 96-well microplate containing 88 µL of 20 mM tris buffer, containing 100 mM NaCl, 2.5 mM CaCl2, 0.1% PEG 8000, and 0.05% Tween 80, 4 µL of CatG (final concentration of 60 nM) and 5 µL of H2O or NSGM (final concentration of 0–100 µM) were added. After incubating for a period of 5 min, 3 µL of CatG substrate (S-7388, final concentration of 750 µM) was added, and the residual CatG activity was obtained from the initial rate of increase of absorbance at 405 nm. The relative residual activity of CatG for each of the NSGMs, at the various concentrations, was calculated from the ratio of CatG activity in the presence and absence of NSGMs. The dose dependence curve was plotted using a logistic equation (see below) in Sigmaplot version 12 to obtain the IC50 (potency), Hill slope (HS), and efficacy (ΔY). Here, Y is the ratio of residual CatG activity in the presence of NSGMs to that in their absence, YO and YM are the minimum and maximum values of fractional residual CatG activity, respectively, IC50 is the concentration of the NSGM that inhibits CatG activity by 50%, and HS is the Hill slope. ΔY = YM − YO. Y=YO+YM−YO/1+10^logI0−logIC50HS
Figure 4 Representative IC50 profiles for CatG inhibition by NSGMs. Direct inhibition of human CatG was measured using the chromogenic substrate hydrolysis assay at pH 7.4 and 37 °C. Solid lines represent analysis using the logistic dose–response relationship (Equation (1)) to obtain the IC50, ΔY%, and HS. Errors represent ± 1 S.E.

human plasma [1] = assay: Activated partial thromboplastin time (aPTT) clotting assay; conditions: concentration required to double the aPTT of pooled human plasma
Description: (§1) The impacts of NSGM 25 on activated partial thromboplastin time (aPTT) and the prothrombin time (PT) of human plasma were measured employing a standard one-stage recalcification assay at 37 °C, as previously reported. CaCl2 and thromboplastin-D were used to initiate clotting in aPTT and PT assays, respectively, in the absence and presence of NSGM 25, and the time to clot was recorded accordingly.

human plasma [2] = assay: Prothrombin time (PT) clotting assay; conditions: concentration required to double the PT of pooled human plasma
Description: as §1

HS (Hill slope) (Human CatG)	IC50 (Human CatG)	ΔY (efficacy) (Human CatG)	fold difference (loss) in CatG inhibition potency relative to NSGM 25 (Human CatG)	Compound	aPTT (EC2X) (human plasma [1])	PT (EC2X) (human plasma [2])
4.1 ± 1.0	3.4 ± 0.2 µM	103 ± 4%		O=c1cc(-c2ccc(OS(=O)(=O)O)cc2)oc2cc(OS(=O)(=O)O)cc(OCc3ccc(-c4ccc(COc5cc(OS(=O)(=O)O)cc6oc(-c7ccc(OS(=O)(=O)O)cc7)cc(=O)c56)cc4)cc3)c12 [NSGM 23]		
3.1 ± 1.0	3.3 ± 0.3 µM	82 ± 4%	66 fold	O=c1cc(-c2ccc(OS(=O)(=O)O)cc2)oc2cc(OS(=O)(=O)O)cc(OCc3ccc(COc4cc(OS(=O)(=O)O)cc5oc(-c6ccc(OS(=O)(=O)O)cc6)cc(=O)c45)cc3)c12 [NSGM 19]		
1.3 ± 0.8	10.3 ± 4.8 µM	81 ± 7%		O=c1cc(-c2ccc(OS(=O)(=O)O)cc2)oc2cc(OS(=O)(=O)O)cc(OCc3cccc(COc4cc(OS(=O)(=O)O)cc5oc(-c6ccc(OS(=O)(=O)O)cc6)cc(=O)c45)c3)c12 [NSGM 21]		
3.1 ± 1.3	65 ± 13 µM	76 ± 7%		O=S(=O)(O)Oc1cc2c(c(OS(=O)(=O)O)c1)CC(OS(=O)(=O)O)C(c1ccc(OS(=O)(=O)O)c(OS(=O)(=O)O)c1)O2 (centres unmarked) [NSGM 17]		
1.5 ± 0.3	4.7 ± 0.7 µM	81 ± 7%		O=c1cc(-c2ccc(OS(=O)(=O)O)cc2)oc2cc(OS(=O)(=O)O)cc(OCC=CCOc3cc(OS(=O)(=O)O)cc4oc(-c5ccc(OS(=O)(=O)O)cc5)cc(=O)c34)c12 [NSGM 18]		
				O=C(NC[C@H]1CN(c2ccc(N3CCOCC3=O)cc2)C(=O)O1)c1ccc(Cl)s1 [Rivaroxaban, rivaroxaban, reference compound]	0.12 µM	0.15 µM
1.9 ± 0.3	> 100 µM	115 ± 4%		Cc1ccc(OCCOc2cc(OS(=O)(=O)O)cc3oc(-c4ccc(OS(=O)(=O)O)cc4)cc(=O)c23)cc1 [NSGM 16]		
1.5 ± 0.5	0.21 ± 0.04 µM	94 ± 9%	4 fold	O=c1c(OS(=O)(=O)O)c(-c2ccc(OS(=O)(=O)O)c(OS(=O)(=O)O)c2)oc2cc(OS(=O)(=O)O)cc(OCCCOc3cc(OS(=O)(=O)O)cc4oc(-c5ccc(OS(=O)(=O)O)c(OS(=O)(=O)O)c5)c(OS(=O)(=O)O)c(=O)c34)c12 [NSGM 24]		
	> 50 µM			COc1cc2oc(C)c(C(=O)OCCOS(=O)(=O)O)c2cc1OS(=O)(=O)O [NSGM 3]		
0.9 ± 0.4	0.15 ± 0.06 µM	77 ± 10%		O=c1c(OS(=O)(=O)O)c(-c2ccc(OS(=O)(=O)O)c(OS(=O)(=O)O)c2)oc2cc(OS(=O)(=O)O)cc(OCc3cccc(COc4cc(OS(=O)(=O)O)cc5oc(-c6ccc(OS(=O)(=O)O)c(OS(=O)(=O)O)c6)c(OS(=O)(=O)O)c(=O)c45)c3)c12 [NSGM 27]		
1.2 ± 0.2	1.3 ± 0.2 µM	105 ± 7%		O=c1cc(-c2ccc(OS(=O)(=O)O)cc2)oc2cc(OS(=O)(=O)O)cc(OCc3ccc(COc4cc(OS(=O)(=O)O)cc5oc(-c6ccc(OS(=O)(=O)O)cc6)cc(=O)c45)nc3)c12 [NSGM 22]		
				CC1CNc2c(cccc2S(=O)(=O)N[C@@H](CCCNC(=N)N)C(=O)N2CC[C@@H](C)C[C@@H]2C(=O)O)C1 (some centres unmarked) [Argatroban, argatroban, reference compound]	0.34 µM	0.36 µM
0.9 ± 0.2	0.18 ± 0.04 µM	77 ± 5%		O=c1c(OS(=O)(=O)O)c(-c2ccc(OS(=O)(=O)O)c(OS(=O)(=O)O)c2)oc2cc(OS(=O)(=O)O)cc(OCc3ccc(COc4cc(OS(=O)(=O)O)cc5oc(-c6ccc(OS(=O)(=O)O)c(OS(=O)(=O)O)c6)c(OS(=O)(=O)O)c(=O)c45)nc3)c12 [NSGM 28]		
	> 50 µM			CCOC(=O)c1c(C)oc2cc(OCc3cccc(OS(=O)(=O)O)c3)c(OS(=O)(=O)O)cc12 [NSGM 2]		
2.1 ± 0.5	18.9 ± 2.2 µM	87 ± 5%		CCOC(=O)c1c(C)oc2cc(OCc3ccccc3)c(OCCCOc3cc(OS(=O)(=O)O)cc4oc(-c5ccc(OS(=O)(=O)O)cc5)cc(=O)c34)cc12 [NSGM 30]		
